Results from patent US10208046B2, “Nitrogen-containing heterocyclic compound” (Takeda Pharmaceutical Company Limited, priority 2014, dated 2019).

How the values were obtained:
[1] = biological target: T1, human M1 receptor (hCHRM1) (Homo sapiens, UniProt P11229); test: Measurement of M1 receptor positive allosteric modulator (M1PAM) activity, calcium fluorescence in CHO-K1 cells; format: cell-based; conditions: for activity (%) at 10 μM: 10 μM test compound with acetylcholine at EC20, 100% = acetylcholine 1 μM, 0% = DMSO; for EC50: inflection point in the concentration-dependent curve, acetylcholine at EC20 (final 0.6-0.8 nM), CHO-K1 cells expressing human M1, Fluo-4, FLIPRtetra, read-out: IP value;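 for EC50: potency reported as IP value in nM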
T1 construct: expressed in transfected cells
T1 sequence (P11229 1-460): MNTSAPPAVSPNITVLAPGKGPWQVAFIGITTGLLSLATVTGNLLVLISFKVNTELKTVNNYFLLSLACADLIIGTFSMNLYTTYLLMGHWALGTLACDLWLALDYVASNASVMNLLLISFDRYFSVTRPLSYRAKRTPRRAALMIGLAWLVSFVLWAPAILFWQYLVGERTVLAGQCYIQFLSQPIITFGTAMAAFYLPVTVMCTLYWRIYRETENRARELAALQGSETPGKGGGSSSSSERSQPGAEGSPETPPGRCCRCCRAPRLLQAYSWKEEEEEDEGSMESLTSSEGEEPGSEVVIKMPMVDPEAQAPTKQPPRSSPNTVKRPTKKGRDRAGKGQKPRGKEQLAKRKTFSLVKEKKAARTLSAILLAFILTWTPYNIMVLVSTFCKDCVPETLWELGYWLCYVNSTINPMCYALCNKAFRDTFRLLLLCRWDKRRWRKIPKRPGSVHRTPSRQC
Summary of the method: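 CHO-K1 cells stably expressing human M1, Fluo-4 loaded, treated with compound plus acetylcholine at EC20 (final 0.6-0.8 nM); calcium fluorescence read by FLIPR over 1 min. Activity scaled to 1 μM acetylcholine (100%) and DMSO (0%); IP = inflection point of concentration-response curve.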

[2] = system: IP1 production in hippocampi; test: Measurement of myo-inositol 1 phosphate (IP1) in rat hippocampi after oral administration; format: in vivo, male Long-Evans rats; conditions: rat hippocampus IP1/protein ratio, Vehicle group as 100%
Method: Measurement of Myo-Inositol 1 Phosphate (IP1)
Animals used were male Long-Evans rats. They were used after acclimation for at least 1 week. Test compounds were suspended in 0.5% (w/v) aqueous methylcellulose solution, and the suspension was orally administered to the rats. After a given time, lithium chloride was dissolved in saline and subcutaneously administered into the rats. After a given time, their bilateral hippocampi were isolated from the rats, and the wet weight thereof was measured. The isolated hippocampi were homogenized with HEPES buffer, followed by centrifugation. The IP1 and protein concentrations in the supernatant were measured by IP-One HTRF(R) assay kit (Cisbio Bioassays) and BCA protein assay kit (Thermo Scientific), respectively. The level of the IP1 production was expressed as the ratio of the concentration of IP1 to that of protein. The increase rate of the IP1 production was shown as a relative value when Vehicle administration group as 100%.

[3] = system: Scopolamine-induced memory deficits models; test: Novel object recognition test; format: in vivo, male Long-Evans rats; conditions: scopolamine 0.1 mg/kg s.c., retention trial 4 hr later, mean±standard error
Method: Novel Object Recognition Test Novel object recognition test is comprised of two trials called the acquisition and the retention trials. Scopolamine-induced memory deficits models were used for the test, and animals used were male Long-Evans rats (7-week-old). On the day before the test, for acclimation, the rats were allowed to freely move about the test box (40×40×50 cm) for 10 minutes. On the test day, the rats were acclimated to the test room for about 1 hr prior to the test. The test compounds were orally administered to the rats in a single dose 2 hours before the acquisition trial. For induction of learning and memory deficits, scopolamine (0.1 mg/kg) was subcutaneously administered into the rats 30 min before the acquisition trial. For the acquisition trial, two identical objects (A1, A2) were placed in the test box. The rats were put in the test box for 3 min, and the duration exploring each object was measured. The retention trial was performed 4 hr after the acquisition trial. […] The duration for exploring each object in the acquisition trial and the retention trial was measured, and the exploration rate of novel object was calculated. The exploration rate of novel object was expressed as (the duration exploring the novel object)/[(the duration exploring the novel object)+(the duration exploring the familiar object)]×100(%) at mean±standard error.

Compound	activity (%) at 10 μM [1] [%]	EC50 [1] [nM]	increase rate (% of Vehicle) ([2]; 30 mg/kg oral)	exploration rate of novel object (%) ([3]; 3 mg/kg oral single dose 2 hours before acquisition trial)	exploration rate of novel object (%) ([3]; 10 mg/kg oral single dose 2 hours before acquisition trial)	increase rate (% of Vehicle) ([2]; 10 mg/kg oral)	increase rate (% of Vehicle) ([2]; 3 mg/kg oral)
Cc1nn(C)cc1-c1ccc(CN2Cc3ccnc(OCC(F)F)c3C2=O)cc1 [Example 6, 4-(2,2-difluoroethoxy)-2-(4-(1,3-dimethyl-1H-pyrazol-4-yl)benzyl)-1,2-dihydro-3H-pyrrolo[3,4-c]pyridin-3-one]	109	70	38 % of Vehicle	58.75±2.01	52.48±2.28		
Cc1nn(C)cc1-c1ccc(CN2Cc3ncnc(OCC(C)(F)F)c3C2=O)cc1 [Example 22, 4-(2,2-difluoropropoxy)-6-(4-(1,3-dimethyl-1H-pyrazol-4-yl)benzyl)-6,7-dihydro-5H-pyrrolo[3,4-d]pyrimidin-5-one]	100	28				71 % of Vehicle	
Cc1nn(C)cc1-c1ccc(CN2Cc3ncnc(OCC(C)(F)F)c3C2=O)c(F)c1 [Example 23, 4-(2,2-difluoropropoxy)-6-(4-(1,3-dimethyl-1H-pyrazol-4-yl)-2-fluorobenzyl)-6,7-dihydro-5H-pyrrolo[3,4-d]pyrimidin-5-one]	94	6					27 % of Vehicle
